Assay results taken from patent US11110158B2, “Prostate-associated antigens and vaccine-based immunotherapy regimens” (Pfizer Inc., priority 2012, dated 2021).
“And” between values parts separate entries of the source, which are not always exact repeats. Identical values can stand only once. Like-named read-outs stand apart in the source and are kept apart here.

How the values were obtained:
phosphorylated STAT3 = assay: Phosphor-STAT3 ELISA of spleen extracts of TUBO tumor bearing BALB/neuT mice after Sutent; type: in vivo, mouse
Procedure: (§1) The acute effect of Sutent on the phosphorylation status of STAT3 in the spleen was investigated in a subcutaneous tumor mouse model to evaluate the direct immunomodulatory effects of the compound. Briefly, 10-12 week old female BALB/neuT mice were implanted with 1e6 TUBO cells subcutaneously in the right flank. After forty one days post tumor implant, Sutent was given by oral gavage at 20 mg/kg. At 0, 1, 3, 7 and 24 hrs post Sutent dosing, three animals per timepoint were sacrificed under IAUCUC guidelines and spleens were immediately snap frozen in liquid nitrogen to preserve the phosphorylation status. Spleens from female BALB/c mice were snap frozen to use as healthy mice controls.
(§2) Snap frozen spleens were homogenized at 100 mg tissue per 500 μL lysis buffer (70 mM NaCl, 50 mM β-glycerol phosphate, 10 mM HEPES, 1% Triton X-100, 100 mM Na3VO4, 100 mM PMSF, 1 mg/mL leupeptin) using a polytron tissue homogenizer. Resulting digests were centrifuged at 10,000 g for 15 minutes. The supernatant was isolated and protein concentrations were determined using BCA protein assay kit (Pierce, Rockford, Ill.). Forty micrograms of protein were added to each well of either a total STAT3 (eBioscience, cat no. 85-86101-11) or phosphor-STAT3 (eBioscience, cat no. 85-86102-11) ELISA Kit. Relative levels of either protein were compared with standards provided in the kit and with standards purchased independently (Signaling Technologies, cat no. 9333-S).

subcutaneous TUBO tumors = assay: Subcutaneous TUBO tumor growth and survival in BALB/neuT mice, sunitinib malate with cancer vaccine; type: in vivo, mouse; settings: FIG. 33D; Sutent 20 mg/kg for 34 days combined with cancer vaccine
Procedure: The Anti-tumor efficacy of sunitinib malate in combination with an anti-cancer DNA vaccine was investigated in BALB/neuT transgenic female mice. Heterozygote BALB/neuT transgenic female mice that express rat Her-2 (rHer-2) tumor associate antigen were implanted subcutaneously with 1e6 TUBO cells expressing rHer-2 which are derived from the spontaneous mammary tumors of BALB/neuT mice. After 7 days post tumor cell implantation, the mice were dosed once a day orally with either vehicle or sunitinib malate at doses as indicated in the legends. Three days after the initiation of sunitinib malate therapy, the mice were immunized with regimens comprised of either (a) control vaccine that expresses an antigen that is not expressed in the tumor or the mouse or (b) DNA cancer vaccine construct that expresses a rat Her-2 antigen of SEQ ID NO: 54 (rHER2) which is expressed in the tumor and the mouse. The tumor growth rate was analyzed by measuring the long (a) and short diameter (b) of the subcutaneous TUBO tumors twice a week and calculating the volume as a×b^2×0.5 mm^3. The average and standard error of the mean of the tumor volumes from 10 mice per each treatment group are plotted against the days after tumor implantation. […]

total STAT3 = assay: Total STAT3 ELISA of spleen extracts of TUBO tumor bearing BALB/neuT mice after Sutent; type: in vivo, mouse
Procedure: as §1, §2

[1] = tested on: Myeloid Derived Suppressor Cells (MDSC); assay: Adoptively transferred MDSC recovered from spleen of BALB/c mice dosed with sunitinib; type: in vivo, mouse; settings: CFSE+, CD3−, GR1+, CD11b+ cells, 2 days post adoptive transfer, vehicle 17470 +/− 2017
Procedure: To generate MDSC enriched splenocytes, TUBO cells (1×10^6) were implanted into the flanks of 5 BALB/neuT mice, and left for approx. 20-30 days until tumor volume reached between 1000-1500 mm^3. Mice were then sacrificed, spleens removed and the MDSC enriched splenocytes recovered. Splenocytes were labeled for 10 minutes with 5 μM CFSE, washed with PBS and counted. Labeled cells were subsequently resuspended at 5×10^7 splenocytes/ml in PBS solution and adoptively transferred via an i.v. tail vein injection into naïve BALB/c recipient mice. Three days prior to adoptive transfer, the recipient mice began bi-daily dosing with vehicle or sunitinib malate (Sutent) at 5 mg/kg, 10 mg/kg and 20 mg/kg. Following adoptive transfer, recipient mice continued to receive bi-daily dosing of Vehicle or sunitinib for two further days, after which point the mice were sacrificed, spleens removed, splenocytes recovered and processed for phenotypic analysis.
Splenocytes were counted and resuspended at 5×10^6 cells/ml in FACS staining buffer (PBS, 0.2% (w/v) bovine serum albumin, and 0.02% (w/v) Sodium Azide). For flow cytometry staining of splenocytes, 2.5×10^6 cells were first incubated with anti-bodies to CD16/CD32, 10 minutes at 4° C., to block Fc receptors and minimize non-specific binding. Splenocytes were then stained for 20 minutes at 4° C. with appropriate fluorophore conjugated antibodies (Biolegend) to murine cell surface markers. For T cells (anti-CD3 (Pacific Blue), clone 17A2) and for MDSC (anti-GR-1 (APC), clone RB6-8C5 and anti-CD11b (PerCp Cy5.5), clone M1/70). A live/dead stain was also included. […] To monitor the effect of Sunitinib or Vehicle on the adoptively transferred MDSC survival, we calculated the percentage of CFSE+,CD3−,GR1+,CD11b+ in the live, singlet gate. We then determined the number of adoptively transferred MDSC per spleen by calculating what actual cell number the percentage represented of total splenocytes count. Data was analyzed by FloJo and Graph pad software.

[2] = Mendel et al.; cited from earlier work
[3] = Kinetics of blood sunitinib by LC/MS/MS in BALB/neuT mice with subcutaneous TUBO tumors; type: in vivo, mouse; settings: for concentration at 2 h: peak at 2 hrs
Procedure: The kinetics of blood sunitinib was investigated in BALB/neuT mice with subcutaneous TUBO tumors. Briefly, 20 mice per each treatment group were given Sutent orally, at 20 mg/kg once a day (SID) or at 10 mg/kg twice a day (BID) with 6 hr intervals, 6 days after tumor implantation. Submandibular blood from 2-3 mice was collected into lithium heparin tubes at several time points after Sutent dosing as indicated (0, 2, 4, 6, 8, 10, 12, and 24 hr). The plasma supernatant was recovered from the tubes after centrifugation at ×1000 g for 15 min. and the sunitinib levels from the plasma samples were measured by LC/MS/MS. The mean and standard error of the mean of each group at each time point is plotted.

[4] = intravenous infusion, cited from earlier work
293 cells = assay: Expression of PSMA constructs in transfected 293 cells by FACS; type: cell-based; settings: 293 cells transfected with PJV7563 vector, stained with mouse anti-PSMA antibody three days later; cell surface expression
Procedure: The expression of the PSMA cytosolic, secreted, and modified antigens was determined by FACS. Mammalian 293 cells were transfected with the PJV7563 PMED vectors encoding the various immunogenic PSMA polypeptides. Three days later, the 293 cells were stained with mouse anti-PSMA antibody, followed with a fluorescent conjugated (FITC) rat anti-mouse secondary antibody.

human PSMA = assay: ELISA, serum anti-PSMA antibody titers after PMED DNA vaccination; type: in vivo; settings: Example 7, FIG. 28; Pasteur and C57BL/6 mice; day 35; within the same strain
Procedure: Serum was subjected to enzyme-linked immunosorbent assays (ELISA) to determine the anti-PSMA and anti-PSCA antibody titers. In brief, ELISA plates were coated with 1 μg/ml of human PSMA or PSCA and incubated overnight at 4° C. Plates were then blocked and incubated at RT for 1 h with 1% bovine serum albumin (BSA). Each serum sample was serially diluted in duplicate starting at a 1:100 dilution and incubated for 1 h at RT. After washing, a horseradish-peroxidise (HRP)-conjugated goat anti-mouse polyclonal IgG antibody was incubated at RT for 1 h. After washing, the TMB Peroxidase EIA-Substrate was incubated at RT for 30 min. The colorimetric reaction was stopped by addition 1N sulfuric acid and the absorbance then read at 450 nm. Titration curves were plotted for each serum sample (sample dilution versus absorbance). The serum titer (subsequently transformed into reciprocal titer) was then taken as the most dilute serum sample tested with an optical density (OD) value of above the lower limit of detection (LLOD; background plus 3 standard deviations) or the serum dilution calculated to achieve an OD value of 1.0. […]
The anti-PSMA and anti-PSCA antibody titers in the serum was determined using ELISA as described in Example 5. […]
Antibody responses induced by the modified and full-length PSMA vaccines were measured in serum from each animal collected on day 35. […]

[5] = tested on: hPSMA full-length protein; assay: IFN-γ ELISPOT, hPSMA modified versus full-length DNA vaccine in C57BL/6 mice; type: in vivo, human; settings: Example 7, FIG. 26; C57BL/6, PMED days 0, 14, 28; day 35
From the text: The immune responses induced by DNA vaccination using a construct encoding an immunogenic PSMA polypeptide (the “human PSMA modified antigen” or “hPSMA modified”) consisting 15-750 amino acids (aa) of the native human PSMA protein of SEQ ID NO: 1 were compared with those induced by the native human full-length PSMA protein (hPSMA full length). Groups of female C57BL/6 mice or female Pasteur (HLA-A2/DR1) transgenic mice were primed on day 0 and boosted on days 14, 28 by PMED administration with a 2 μg dose of a DNA vaccine encoding either hPSMA full-length or hPSMA modified protein. Mice were bled and sacrificed on day 35 (7 days after the third vaccination) and T cell immune responses against the hPSMA full-length protein were determined in splenocytes by IFN-γ ELISPOT assay. For C57BL/6 mice, single cell suspensions of 5×10^5 splenocytes from individual animals were plated per well with […] purified hPSMA protein, 5×10^4 TRAMP-C2 cells alone, or TRAMP-C2 cells expressing hPSMA or a PSMA-PSA-PSCA fusion protein. […] Responses in Pasteur mice were also determined using 10 μg/ml purified PSMA protein or 5×10^4 SK-Mel5 cells that had been transduced with Adenoviral vectors expressing a control protein (Ad-eGFP) or the full-length human PSMA protein (Ad-hPSMA). […] The number of IFN-γ SFC was counted by a CTL reader. […]

[6] = 1 hr after Sutent 20 mg/kg oral gavage
[7] = 3 hrs after Sutent 20 mg/kg oral gavage
[8] = 7 hrs after Sutent 20 mg/kg oral gavage
[9] = 24 hrs after Sutent 20 mg/kg oral gavage

CCN(CC)CCNC(=O)c1c(C)[nH]c(/C=C2\C(=O)Nc3ccc(F)cc32)c1C [Sunitinib, butanedioic acid, hydroxy-, (2S)-, compound with N-[2-(diethylamino)ethyl]-5-[(Z)-(5-fluoro-1,2-dihydro-2-oxo-3H-indol-3-ylidine)methyl]-2,4-dimethyl-1H-pyrrole-3-carboxamide (1:1)]
Phospho-STAT3 relative level, Mean (phosphorylated STAT3; [6]): 0.23
Phospho-STAT3 relative level, individual values (phosphorylated STAT3; [6]): 0.26 and 0.25 and 0.19
Phospho-STAT3 relative level, Mean (phosphorylated STAT3; [7]): 0.19
Phospho-STAT3 relative level, individual values (phosphorylated STAT3; [7]): 0.19 and 0.15 and 0.22
Phospho-STAT3 relative level, Mean (phosphorylated STAT3; [8]): 0.27
Phospho-STAT3 relative level, individual values (phosphorylated STAT3; [8]): 0.19 and 0.31 and 0.29
Phospho-STAT3 relative level, Mean (phosphorylated STAT3; [9]): 1.44
Phospho-STAT3 relative level, individual values (phosphorylated STAT3; [9]): 1.54 and 1.30 and 1.47
animals with significantly impaired progression of the tumor after discontinuation of Sutent treatment (subcutaneous TUBO tumors): 60 % of the animals
Total STAT3 relative level, Mean (total STAT3; [6]): 0.09
Total STAT3 relative level, individual values (total STAT3; [6]): 0.12 and 0.08 (2×)
Total STAT3 relative level, Mean (total STAT3; [7]): 0.13
Total STAT3 relative level, individual values (total STAT3; [7]): 0.15 and 0.09 and 0.16
Total STAT3 relative level, Mean (total STAT3; [8]): 0.08
Total STAT3 relative level, individual values (total STAT3; [8]): 0.10 and 0.07 and 0.08
Total STAT3 relative level, Mean (total STAT3; [9]): 0.08
Total STAT3 relative level, individual values (total STAT3; [9]): 0.08
MDSC #/spleen Mean +/− SEM ([1]; Sunitinib 5 mg/kg bi-daily): 10980 +/− 1082
MDSC #/spleen Mean +/− SEM ([1]; Sunitinib 10 mg/kg bi-daily): 4207 +/− 338
MDSC #/spleen Mean +/− SEM ([1]; Sunitinib 20 mg/kg bi-daily): 4440 +/− 440
minimum sunitinib blood level necessary to effectively inhibit tumor growth in monotherapy [2]: 50 ng/mL
time by which sunitinib cleared the blood ([3]; 10 mg/kg BID orally, after the second dose): ≤ 18 h
time by which sunitinib cleared the blood ([3]; 20 mg/kg SID orally, post Sutent dosing): ≤ 12 h
concentration at 2 h ([3]; BALB/neuT, mouse, plasma, oral, 10 mg/kg BID (6 hr interval) orally, read-out: blood sunitinib level): > 50 ng/mL
concentration at 4 h ([3]; BALB/neuT, mouse, plasma, oral, 10 mg/kg BID orally, by 4 hrs, read-out: blood sunitinib level): < 50 ng/mL
concentration at 6 h ([3]; BALB/neuT, mouse, plasma, oral, 20 mg/kg SID orally, at 6 hrs, read-out: blood sunitinib level): 50 ng/mL
concentration at 2 h ([3]; BALB/neuT, mouse, plasma, oral, 20 mg/kg SID orally, read-out: blood sunitinib level): > 50 ng/mL

CP-870893: fully human agonistic CD40 monoclonal antibody, SEQ ID NO: 40 and 41
maximum tolerated dose (MTD) ([4]; patients with advanced solid tumors): 0.2 mg/kg
dose-limiting toxicities ([4]; phase I clinical study): grade 3 CRS and grade 3 urticaria

full length human PSMA (SEQ ID NO: 1): native human full-length PSMA protein (aa 1-750), SEQ ID NO: 1; tested as DNA vaccine
Average mean fluorescent intensity (293 cells): 6425
serum anti-PSMA antibody titers (human PSMA): equivalent anti-PSMA antibody titer
IFN-γ T cell responses to TRAMP C2-PSMA or purified hPSMA protein [5]: equivalent T cell immune responses
